According to US12139492B2 (Endotarget Inc., priority 2021, dated 2024):
Like-named read-outs stand apart in the source and are kept apart here. Values belong to the compound of their own block, whether it stands above or below them.

Tests used:
Format in all cases: cell-based
[1] = tested on: Mino cells; assay: Antiproliferative effect, MTS cell viability assay, Mino cells; details: Mino mantle cell lymphoma cells, read-out: IC50 (anti-proliferation) Mino cells
In short: (§1)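 Cells were exposed to compound at 0, 0.001, 0.01, 0.1, 1 and 10 μM for 72 h. Viability was then measured by MTS assay, reading formazan produced by metabolically active cells as absorbance at 490 nm.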

[2] = biological target: BTK (Homo sapiens, UniProt Q06187); assay: BTK degradation, DC50 and Dmax of Table 1 (cell line not given); set-up: endogenous in cells; details: for DC50: concentration giving 50% reduction of BTK expression level
Sequence of BTK (Q06187 whole entry): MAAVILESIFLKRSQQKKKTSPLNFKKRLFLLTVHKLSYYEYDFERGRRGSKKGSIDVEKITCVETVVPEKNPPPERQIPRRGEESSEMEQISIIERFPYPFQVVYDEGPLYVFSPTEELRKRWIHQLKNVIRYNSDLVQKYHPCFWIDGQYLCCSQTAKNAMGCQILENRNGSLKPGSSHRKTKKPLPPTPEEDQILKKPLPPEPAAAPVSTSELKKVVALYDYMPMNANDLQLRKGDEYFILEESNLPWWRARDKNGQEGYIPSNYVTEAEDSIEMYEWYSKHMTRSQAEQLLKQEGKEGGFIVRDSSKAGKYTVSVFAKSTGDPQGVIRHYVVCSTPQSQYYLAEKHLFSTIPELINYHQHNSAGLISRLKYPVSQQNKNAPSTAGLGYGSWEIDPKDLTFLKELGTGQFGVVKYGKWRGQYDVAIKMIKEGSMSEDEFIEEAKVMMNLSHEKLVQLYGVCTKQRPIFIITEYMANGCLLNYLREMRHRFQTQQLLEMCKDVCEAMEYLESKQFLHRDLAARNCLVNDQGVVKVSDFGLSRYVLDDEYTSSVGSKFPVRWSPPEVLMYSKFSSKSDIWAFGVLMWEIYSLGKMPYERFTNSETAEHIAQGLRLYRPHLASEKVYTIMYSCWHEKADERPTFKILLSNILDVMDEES

[3] = tested on: JeKo-1 cells; assay: Antiproliferative effect, MTS cell viability assay, JeKo-1 cells; details: JeKo-1 mantle cell lymphoma cells, read-out: IC50 (anti-proliferation) JeKO-1 cells
In short: as §1

- Dmax [2]: > 75%
- DC50 [2]: > 50 nM
Compound: Nc1ncnc2c1c(-c1ccc(Oc3ccccc3)cc1)nn2C1CCN(C(=O)N2CCN(CCCC3CCN(c4ccc5c(c4)C(=O)N(C4CCC(=O)NC4=O)C5=O)CC3)CC2)CC1 (centres unmarked) [Compound 121, 5-(4-(3-(4-(4-(4-amino-3-(4-phenoxyphenyl)-1H-pyrzolo[3,4-d]pyrimidin-1-yl)piperidine-1-carbonyl)piperazin-1-yl)propyl)piperidin-1-yl)-2-(2,6-dioxopiperidin-3-yl)isoindoline-1,3-dione]
- IC50 ([1]; Homo sapiens, MINO): 1000 to 10000 nM
- IC50 ([3]; Homo sapiens): 1000 to 10000 nM

- Dmax [2]: > 90%
- DC50 [2]: 10 to 50 nM
Compound: Nc1ncnc2c1c(-c1ccc(Oc3ccccc3)cc1)nn2C1CCN(CCOCCC2CCN(c3ccc4c(c3)C(=O)N(C3CCC(=O)NC3=O)C4=O)CC2)CC1 (centres unmarked) [Compound 19, 5-(4-(2-(2-(4-(4-amino-3-(4-phenoxyphenyl)-1H-pyrazolo[3,4-d]pyrimidin-1-yl)piperidin-1-yl)ethoxy)ethyl)piperidin-1-yl)-2-(2,6-dioxopiperidin-3-yl)isoindoline-1,3-dione]
- IC50 ([1]; Homo sapiens, MINO): 1000 to 10000 nM
- IC50 ([3]; Homo sapiens): 1000 to 10000 nM

- Dmax [2]: > 75%
- DC50 [2]: > 50 nM
Compound: Nc1ncnc2c1c(-c1ccc(Oc3ccccc3)cc1)nn2[C@@H]1CCCN(C(=O)N2CCC(CCCC3CCN(c4ccc5c(c4)C(=O)N(C4CCC(=O)NC4=O)C5=O)CC3)CC2)C1 (stereo partly drawn) [Compound 113, 5-(4-(3-(1-((R)-3-(4-amino-3-(4-phenoxyphenyl)-1H-pyrazolo[3,4-d]pyrimidin-1-yl)piperidine-1-carbonyl)piperidin-4-yl)propyl)piperidin-1-yl)-2-(2,6-dioxopiperidin-3-yl)isoindoline-1,3-dione]
- IC50 ([1]; Homo sapiens, MINO): 1000 to 10000 nM
- IC50 ([3]; Homo sapiens): > 10000 nM

- Dmax [2]: > 90%
- DC50 [2]: < 10 nM
Compound: Nc1ncnc2c1c(-c1ccc(Oc3ccccc3)cc1)nn2C1CCN(CCOCCOCCN2CCC(c3ccc4c(c3)CN(C3CCC(=O)NC3=O)C4=O)CC2)CC1 (centres unmarked) [Compound 10, 3-(5-(1-(2-(2-(2-(4-(4-amino-3-(4-phenoxyphenyl)-1H-pyrazolo[3,4-d]pyrimidin-1-yl)piperidin-1-yl)ethoxy)ethoxy)ethyl)piperidin-4-yl)-1-oxoisoindolin-2-yl)piperidine-2,6-dione]
- IC50 ([1]; Homo sapiens, MINO): < 1000 nM
- IC50 ([3]; Homo sapiens): 1000 to 10000 nM

- Dmax [2]: > 75%
- DC50 [2]: 10 to 50 nM
Compound: Nc1ncnc2c1c(-c1ccc(Oc3ccccc3)cc1)nn2C1CCCN(CCOCCN2CCC(c3ccc4c(c3)C(=O)N(C3CCC(=O)NC3=O)C4=O)CC2)C1 (centres unmarked) [Compound 15, 5-(1-(2-(2-(3-(4-amino-3-(4-phenoxyphenyl)-1H-pyrazolo[3,4-d]pyrimidin-1-yl)piperidin-1-yl)ethoxy)ethyl)piperidin-4-yl)-2-(2,6-dioxopiperidin-3-yl)isoindoline-1,3-dione]
- IC50 ([1]; Homo sapiens, MINO): 1000 to 10000 nM
- IC50 ([3]; Homo sapiens): 1000 to 10000 nM

- Dmax [2]: > 90%
- DC50 [2]: 10 to 50 nM
Compound: Nc1ncnc2c1c(-c1ccc(Oc3ccccc3)cc1)nn2C1CCN(C(=O)N2CCN(CCC3CCN(c4ccc5c(c4)CN(C4CCC(=O)NC4=O)C5=O)CC3)CC2)CC1 (centres unmarked) [Compound 98, 3-(5-(4-(2-(4-(4-(4-amino-3-(4-phenoxyphenyl)-1H-pyrazolo[3,4-d]pyrimidin-1-yl)piperidine-1-carbonyl)piperazin-1-yl)ethyl)piperidin-1-yl)-1-oxoisoindolin-2-yl)piperidine-2,6-dione]
- IC50 ([1]; Homo sapiens, MINO): 1000 to 10000 nM
- IC50 ([3]; Homo sapiens): 1000 to 10000 nM

- Dmax [2]: > 90%
- DC50 [2]: 10 to 50 nM
Compound: Nc1ncnc2c1c(-c1ccc(Oc3ccccc3)cc1)nn2C1CCCN(CCOCCN2CCC(c3ccc4c(c3)CN(C3CCC(=O)NC3=O)C4=O)CC2)C1 (centres unmarked) [Compound 16, 3-(5-(1-(2-(2-(3-(4-amino-3-(4-phenoxyphenyl)-1H-pyrazolo[3,4-d]pyrimidin-1-yl)piperidin-1-yl)ethoxy)ethyl)piperidin-4-yl)-1-oxoisoindolin-2-yl)piperidine-2,6-dione]
- IC50 ([1]; Homo sapiens, MINO): 1000 to 10000 nM
- IC50 ([3]; Homo sapiens): 1000 to 10000 nM

- Dmax [2]: > 90%
- DC50 [2]: 10 to 50 nM
Compound: Nc1ncnc2c1c(-c1ccc(Oc3ccccc3)cc1)nn2C1CCN(C(=O)N2CCN(CCN3CCC(c4ccc5c(c4)C(=O)N(C4CCC(=O)NC4=O)C5=O)CC3)CC2)CC1 (centres unmarked) [Compound 99, 5-(1-(2-(4-(4-(4-amino-3-(4-phenoxyphenyl)-1H-pyrazolo[3,4-d]pyrimidin-1-yl)piperidine-1-carbonyl)piperazin-1-yl)ethyl)piperidin-4-yl)-2-(2,6-dioxopiperidin-3-yl)isoindoline-1,3-dione]
- IC50 ([1]; Homo sapiens, MINO): > 10000 nM
- IC50 ([3]; Homo sapiens): 1000 to 10000 nM

The remaining lines, values behind:

Compound: Nc1ncnc2c1c(-c1ccc(Oc3ccccc3)cc1)nn2[C@@H]1CCCN(C(=O)N2CCN(CCN3CCN(c4ccc5c(c4)C(=O)N(C4CCC(=O)NC4=O)C5=O)CC3)CC2)C1 (stereo partly drawn) [Compound 65, 5-(4-(2-(4-((R)-3-(4-amino-3-(4-phenoxyphenyl)-1H-pyrazolo[3,4-d]pyrimidin-1-yl)piperidine-1-carbonyl)piperazin-1-yl)ethyl)piperazin-1-yl)-2-(2,6-dioxopiperidin-3-yl)isoindoline-1,3-dione]
- IC50 ([1]; Homo sapiens, MINO): 1000 to 10000 nM
- Dmax [2]: > 90%
- DC50 [2]: < 10 nM
- IC50 ([3]; Homo sapiens): 1000 to 10000 nM

Compound: Nc1ncnc2c1c(-c1ccc(Oc3ccccc3)cc1)nn2[C@@H]1CCCN(C2CCN(C(=O)N3CCC(CN4CCN(c5ccc6c(c5)CN(C5CCC(=O)NC5=O)C6=O)CC4)CC3)CC2)C1 (stereo partly drawn) [Compound 170, 3-(5-(4-((1-((R)-3-(4-amino-3-(4-phenoxyphenyl)-1H-pyrazolo(3,4-d)pyrimidin-1-yl)-(1,4′-bipiperidine)-1′-carbonyl)piperidin-4-yl)methyl)piperazin-1-yl)-1-oxoisoindolin-2-yl)piperidine-2,6-dione]
- IC50 ([1]; Homo sapiens, MINO): 1000 to 10000 nM
- Dmax [2]: > 90%
- DC50 [2]: 10 to 50 nM
- IC50 ([3]; Homo sapiens): 1000 to 10000 nM

Compound: Nc1ncnc2c1c(-c1ccc(Oc3ccccc3)cc1)nn2C1CCN(C(=O)N2CCN(CC3CCN(c4ccc5c(c4)CN(C4CCC(=O)NC4=O)C5=O)CC3)CC2)CC1 (centres unmarked) [Compound 88, 3-(5-(4-((4-(4-(4-amino-3-(4-phenoxyphenyl)-1H-pyrazolo[3,4-d]pyrimidin-1-yl)piperidine-1-carbonyl)piperazin-1-yl)methyl)piperidin-1-yl)-1-oxoisoindolin-2-yl)piperidine-2,6-dione]
- IC50 ([1]; Homo sapiens, MINO): < 1000 nM
- Dmax [2]: > 90%
- DC50 [2]: 10 to 50 nM
- IC50 ([3]; Homo sapiens): < 1000 nM

Compound: 3-(5-(4-(2-(2-(3-(4-amino-3-(4- phenoxyphenyl)-1H-pyrazolo[3,4- d]pyrimidin-1-yl)piperidin-1- yl)ethoxy)ethyl)piperidin-1-yl)-1- oxoisindolin-2-yl)piperidine-2,6- dione [Compound 24]
- IC50 [1]: 1000 to 10000 nM
- Dmax (BTK degradation) [2]: A (A >90%)
- DC50 [2]: 10 to 50 nM
- IC50 [3]: 1000 to 10000 nM

Compound: Nc1ncnc2c1c(-c1ccc(Oc3ccccc3)cc1)nn2[C@@H]1CCCN(C(=O)N2CCN(CCCN3CCN(c4ccc5c(c4)CN(C4CCC(=O)NC4=O)C5=O)CC3)CC2)C1 (stereo partly drawn) [Compound 108, 3-(5-(4-(3-(4-((R)-3-(4-amino-3-(4-phenoxyphenyl)-1H-pyrazolo[3,4-d]pyrimidin-1-yl)piperidine-1-carbonyl)piperazin-1-yl)propyl)piperazin-1-yl)-1-oxoisoindolin-2-yl)piperidine-2,6-dione]
- IC50 ([1]; Homo sapiens, MINO): 1000 to 10000 nM
- Dmax [2]: > 75%
- DC50 [2]: > 50 nM
- IC50 ([3]; Homo sapiens): 1000 to 10000 nM

Compound: Nc1ncnc2c1c(-c1ccc(Oc3ccccc3)cc1)nn2[C@@H]1CCCN(CC2CCN(CCN3CCN(c4ccc5c(c4)CN(C4CCC(=O)NC4=O)C5=O)CC3)CC2)C1 (stereo partly drawn) [Compound 134, 3-(5-(4-(2-(4-(((R)-3-(4-amino-3-(4-phenoxyphenyl)-1H-pyrazolo[3,4-d]pyrimidin-1-yl)piperidin-1-yl)methyl)piperidin-1-yl)ethyl)piperazin-1-yl)-1-oxoisoindolin-2-yl)piperidine-2,6-dione]
- IC50 ([1]; Homo sapiens, MINO): 1000 to 10000 nM
- Dmax [2]: > 75%
- DC50 [2]: 10 to 50 nM
- IC50 ([3]; Homo sapiens): 1000 to 10000 nM

Compound: Nc1ncnc2c1c(-c1ccc(Oc3ccccc3)cc1)nn2[C@@H]1CCCN(C(=O)N2CCN(CCCN3CCC(c4ccc5c(c4)CN(C4CCC(=O)NC4=O)C5=O)CC3)CC2)C1 (stereo partly drawn) [Compound 112, 3-(5-(1-(3-(4-((R)-3-(4-amino-3-(4-phenoxyphenyl)-1H-pyrazolo[3,4-d]pyrimidin-1-yl)piperidine-1-carbonyl)piperazin-1-yl)propyl)piperidin-4-yl)-1-oxoisoindolin-2-yl)piperidine-2,6-dione]
- IC50 ([1]; Homo sapiens, MINO): 1000 to 10000 nM
- Dmax [2]: > 75%
- DC50 [2]: > 50 nM
- IC50 ([3]; Homo sapiens): 1000 to 10000 nM

Compound: Nc1ncnc2c1c(-c1ccc(Oc3ccccc3)cc1)nn2[C@@H]1CCCN(CC2CCN(C(=O)N3CCC(C4CCN(c5ccc6c(c5)CN(C5CCC(=O)NC5=O)C6=O)CC4)CC3)CC2)C1 (stereo partly drawn) [Compound 30, 3-(5-(1′-(4-(((R)-3-(4-amino-3-(4-phenoxyphenyl)-1H-pyrazolo[3,4-d]pyrimidin-1-yl)piperidin-1-yl)methyl)piperidine-1-carbonyl)-[4,4′-bipiperidin]-1-yl)-1-oxoisoindolin-2-yl)piperidine-2,6-dione]
- IC50 ([1]; Homo sapiens, MINO): 1000 to 10000 nM
- Dmax [2]: > 90%
- DC50 [2]: 10 to 50 nM
- IC50 ([3]; Homo sapiens): 1000 to 10000 nM

Compound: Nc1ncnc2c1c(-c1ccc(Oc3ccccc3)cc1)nn2C1CCN(C(=O)N2CCC(CC3CCN(c4ccc5c(c4)CN(C4CCC(=O)NC4=O)C5=O)CC3)CC2)CC1 (centres unmarked) [Compound 90, 3-(5-(4-((1-(4-(4-amino-3-(4-phenoxyphenyl)-1H-pyrazolo[3,4-d]pyrimidin-1-yl)piperidine-1-carbonyl)piperidin-4-yl)methyl)piperidin-1-yl)-1-oxoisoindolin-2-yl)piperidine-2,6-dione]
- IC50 ([1]; Homo sapiens, MINO): 1000 to 10000 nM
- Dmax [2]: > 90%
- DC50 [2]: < 10 nM
- IC50 ([3]; Homo sapiens): 1000 to 10000 nM
